Measurements as given in ChEMBL document CHEMBL1129918, “Peptide argininol inverse substrates of anisic acid: Novel inhibitors of the trypsin-like serine proteinases” (Bioorg Med Chem Lett, 1997).
pKi: −log10 of the molar value. Blank lines part the entries; values can stand above or below the compound they belong to. The source made the active and inactive calls. No cut-off for these calls is given here.

What was measured:
[1] = target: Serine protease 1 (Homo sapiens) (UniProt P07477); test: The inhibitor specificity constant ki/Ki was evaluated for the compound against trypsin
Chain of Serine protease 1 (Homo sapiens) (P07477 whole entry): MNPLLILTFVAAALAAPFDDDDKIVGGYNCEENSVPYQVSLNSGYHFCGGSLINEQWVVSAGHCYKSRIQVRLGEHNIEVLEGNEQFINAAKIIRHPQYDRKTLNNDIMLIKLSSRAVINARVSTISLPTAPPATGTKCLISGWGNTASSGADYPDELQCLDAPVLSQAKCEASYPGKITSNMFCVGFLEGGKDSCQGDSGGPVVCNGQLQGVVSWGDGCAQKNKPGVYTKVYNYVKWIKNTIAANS

[2] = target: Prothrombin (Homo sapiens, UniProt P00734); test: Evaluated for inhibition against thrombin
[3] = target: Coagulation factor X (Homo sapiens) (UniProt P00742); test: Inhibitor specificity constant ki/Ki was evaluated for the compound against Factor Xa
Chain of Coagulation factor X (Homo sapiens) (P00742 41-179 limits assumed): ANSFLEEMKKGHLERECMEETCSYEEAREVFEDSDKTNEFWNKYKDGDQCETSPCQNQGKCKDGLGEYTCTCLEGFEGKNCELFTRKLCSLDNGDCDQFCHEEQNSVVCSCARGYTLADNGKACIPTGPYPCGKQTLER
Chain of Coagulation factor X (Homo sapiens) (P00742 235-488 limits assumed): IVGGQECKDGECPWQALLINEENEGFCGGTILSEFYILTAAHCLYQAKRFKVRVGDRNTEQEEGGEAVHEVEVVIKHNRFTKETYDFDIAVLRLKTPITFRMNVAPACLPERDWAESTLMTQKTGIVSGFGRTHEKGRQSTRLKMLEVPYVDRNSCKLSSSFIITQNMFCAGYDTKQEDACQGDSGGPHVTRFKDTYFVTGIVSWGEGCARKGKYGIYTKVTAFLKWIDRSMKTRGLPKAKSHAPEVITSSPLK

[4] = target: Tryptase (Homo sapiens) (UniProt Q9BZJ3+Q15661+Q9NRR2); test: Inhibitor specificity constant ki/Ki was evaluated for the compound against tryptase; NI means No inhibition; assay type: protein assay

- ki/Ki [1]: 0.0417 M⁻¹ s⁻¹
- pKi [2]: 4.85
Structure (SMILES): COc1ccc(C(=O)OC[C@H](CCCN=C(N)N)NC(=O)[C@@H]2CCCN2C(=O)[C@@H](Cc2ccccc2)NC(=O)OC(C)(C)C)cc1

- ki/Ki [3]: 0.075 M⁻¹ s⁻¹
Structure (SMILES): CC[C@H](C)[C@H](NC(=O)OC(C)(C)C)C(=O)N[C@@H](CCC(=O)O)C(=O)NCC(=O)N[C@@H](CCCN=C(N)N)COC(=O)c1ccc(OC)cc1

- ki/Ki [4]: inactive
Structure (SMILES): COc1ccc(C(=O)OC[C@H](CCCN=C(N)N)NC(=O)[C@H](CCC(N)=O)NC(=O)[C@H](CCCN=C(N)N)NC(C)=O)cc1
